Read-outs that look alike come from different tables or passages of the source.
How the values were obtained:
OvCAR3 cells = assay: Cellular proliferation/cytotoxicity assay (Alamar Blue), OvCAR3 cells; format: cell-based; details: Homo sapiens, OVCAR-3, 72 h, Alamar Blue (Resazurin), read-out: Anti-proliferative/Cytotoxic activity (OvCAR3 cells)
Source text: Viabilities are expressed as % values.

A549 cells = assay: Cellular proliferation/cytotoxicity assay (Alamar Blue), A549 cells; details: read-out: Anti-proliferative/Cytotoxic activity (A549 cells)
phospho-Akt (Ser473) = assay: Cellular PI3K/Akt pathway assay (phospho-Akt ELISA); format: cell-based; details: MCF7 cells, β-Heregulin stimulated, 48 h, phospho-Akt1 (Ser473) ELISA
Experimental: In order to study the cellular activity of the compounds according to the present invention, an Enzyme Linked Immunosorbent Assay (ELISA)-based assay has been used specific phospho-AKT. The assay is based on a Sandwich ELISA kit (PathScan™ Phospho-Akt1 (Ser473); Cell Signaling, USA; #7160).
The ELISA Kit detects endogenous levels of phosphorylated Akt protein. A phospho-Akt (Ser473) antibody (Cell Signaling, USA; #9271) has been coated onto the microwells. After incubation with cell lysates, the coated antibody captures the phosphorylated Akt protein. Following extensive washing, Akt1 monoclonal antibody (Cell Signaling, USA; #2967) is added to detect the captured phospho-Akt1 protein. HRP-linked anti-mouse antibody (HRP: horseradish peroxidase; Cell Signaling, USA; #7076) is then used to recognize the bound detection antibody. HRP substrate (=3,3′,5,5′-tetramethylbenzidine (TMB); Cell Signaling, USA; #7160) is added to develop colour. The magnitude of optical density for this developed color is proportional to the quantity of phosphorylated Akt protein. MCF7 cells (ATCC HTB-22) are seeded into 96 well fate bottom plates at a density of 10000 cells/well. 24 hours after seeding, the cells are serum starved using low-serum medium (IMEM media including 0.1% charcoal treated FCS (FCS: fetal calf serum)). […] To stimulate Akt phosphorylation, β-Heregulin (20 ng/ml β-HRG) is added in parallel to the compounds. Wells containing unstimulated control cells (no β-Heregulin stimulation) are incubated with or without the diluted compound. Wells containing untreated control cells (no compound) are filled with medium containing 0.5% v:v DMSO and are or are not stimulated with β-Heregulin.
Cells are harvested and lysed with brief sonification in 1× cell lysis buffer (20 mM Tris (pH7.5), 150 mM NaCl, 1 mM ethylene diaminetetraacetate (EDTA), 1 mM ethylene glycolbis(2-aminoethyl)-N,N,N′,N′-tetraacetic acid (EGTA), 1 vol % Triton X-100, 2.5 mM sodium pyrophosphate, 1 mM β-glycerolphosphate, 1 mM Na3VO4, 1 μg/ml leupeptin). The lysate is centrifuged for 10 min. at 4° C. and the supernatant is transferred to a new tube. 100 μl of sample diluent (0.1 vol % Tween-20, 0.1 vol % sodium azide in phosphate buffered saline (PBS)) are added to a microcentrifuge tube and 100 μl of cell lysate are transferred into the tube and vortexed. 100 μl of each diluted cell lysate are added to the appropriate ELISA well, and incubated overnight at 4° C. The plates are washed 4 times with 1× wash buffer (1 vol % tween-20, 0.33 vol % thymol, in PBS). Next 100 μl of detection antibody (Akt1 (2H10) monoclonal detection antibody; Cell Signaling, USA; #2967) are added to each well and incubation continued for 1 h at 37° C. The washing procedure is repeated between each step. 100 μl of secondary antibody (anti-mouse IgG HRP-linked antibody; Cell Signaling, USA; #7076) are added to each well and incubated for 30 min. at 37° C. Than, 100 μl of TMB substrate (0.05% 3,3′,5,5′ tetramethylbenzidine, 0.1% hydrogen peroxide, complex polypeptides in a buffered solution; Cell Signaling, USA; #7160) are added to each well and incubated for 30 min. at 25° C. Finally 100 μl of STOP solution (0.05 vol % α and β unsaturated carbonyl compound) are added to each well and the plate are shaked gently. The absorbance is measured at ? 450 nm (Wallac Victor2; Perkin Elmer, USA) within 30 min. after adding the STOP solution. The analysis of the data is performed using a statistical program (Excel; Microsoft, USA). Preferred compounds show an inhibitory activity towards Akt phosphorylation below 10 μM.

[1] = A549 cells, 72 h, Alamar Blue (Resazurin)

## N#Cc1cccn2c(-c3ccccc3)c(-c3ccc(CN4CCC(c5n[nH]c(-c6ccccn6)n5)CC4)cc3)nc12 [Example 5, 3-phenyl-2-(4-{[4-(5-pyridin-2-yl-1,2,4-triazol-3-yl)piperidin-1-yl]methyl}phenyl)imidazo[1,2-a]pyridine-8-carbonitrile]
OvCAR3 cells
  IC50: < 10 µM
A549 cells; Homo sapiens, A549, 72 h
  IC50: < 10 µM

## Cc1cccc(-c2nnc(C3CCN(Cc4ccc(-c5nc6cc(C#N)ccn6c5-c5ccccc5)cc4)CC3)[nH]2)n1 [Example 61, 2-[4-({4-[5-(6-methylpyridin-2-yl)-4H-1,2,4-triazol-3-yl]piperidin-1-yl}methyl)phenyl]-3-phenylimidazo[1,2-a]pyridine-7-carbonitrile]
phospho-Akt (Ser473); Homo sapiens
  IC50: < 1 µM
A549 cells; Homo sapiens, A549, 72 h
  IC50: > 10 µM

## N#Cc1cccn2c(-c3ccccc3)c(-c3ccc(CN4CCC(c5nnc(-c6ccccc6)[nH]5)CC4)cc3)nc12 [Example 117, 3-phenyl-2-(4-{[4-(5-phenyl-4H-1,2,4-triazol-3-yl)piperidin-1-yl]methyl}phenyl)imidazo[1,2-a]pyridine-8-carbonitrile]
phospho-Akt (Ser473); Homo sapiens
  IC50: < 1 µM
A549 cells; Homo sapiens, A549, 72 h
  IC50: > 10 µM

## c1ccc(-c2c(-c3ccc(CN4CCC(c5nnc(-c6ccco6)[nH]5)CC4)cc3)nc3sccn23)cc1 [Example 93, ′6-[4-({4-[5-(2-furyl)-4H-1,2,4-triazol-3-yl]piperidin-1-yl}methyl)phenyl]-5-phenylimidazo[2,1-b][1,3]thiazole]
phospho-Akt (Ser473)
  IC50: < 1 µM
A549 cells; [1]
  IC50: < 10 µM

## N#Cc1cccn2c(-c3ccccc3)c(-c3ccc(CN4CCC(c5nnc(-c6ncccn6)[nH]5)CC4)cc3)nc12 [Example 77, 3-phenyl-2-[4-({4-[5-(pyrimidin-2-yl)-4H-1,2,4-triazol-3-yl]piperidin-1-yl}methyl)phenyl]imidazo[1,2-a]pyridine-8-carbonitrile]
phospho-Akt (Ser473); Homo sapiens
  IC50: < 1 µM
A549 cells; Homo sapiens, A549, 72 h
  IC50: > 10 µM

## c1ccc(-c2nnc(C3CCN(Cc4ccc(-c5nc6sccn6c5-c5ncco5)cc4)CC3)[nH]2)nc1 [Example 43, 5-(1,3-oxazol-2-yl)-6-(4-{[4-(5-pyridin-2-yl-4H-1,2,4-triazol-3-yl)piperidin-1-yl]methyl}phenyl)imidazo[2,1-b][1,3]thiazole]
phospho-Akt (Ser473); Homo sapiens
  IC50: 1 to 10 µM

## N=C(N)c1cccn2c(-c3ccccc3)c(-c3ccc(CN4CCC(c5n[nH]c(-c6ccccn6)n5)CC4)cc3)nc12 [Example 33, 3-phenyl-2-(4-{[4-(5-pyridin-2-yl-1,2,4-triazol-3-yl)piperidin-1-yl]methyl}phenyl)imidazo[1,2-a]pyridine-8-carboximidamide]
OvCAR3 cells
  IC50: < 10 µM
A549 cells; Homo sapiens, A549, 72 h
  IC50: < 10 µM

## COC(=O)c1ccn2c(-c3ccccc3)c(-c3ccc(CN4CCC(c5nnc(-c6ccccn6)[nH]5)CC4)cc3)nc2c1 [Example 124, methyl 3-phenyl-2-[4-({4-[5-(pyridin-2-yl)-4H-1,2,4-triazol-3-yl]piperidin-1-yl}methyl)phenyl]imidazo[1,2-a]pyridine-7-carboxylate]
phospho-Akt (Ser473); Homo sapiens
  IC50: < 1 µM
A549 cells; Homo sapiens, A549, 72 h
  IC50: > 10 µM

## NC(=O)c1cccn2c(-c3ccccc3)c(-c3ccc(CN4CCC(c5n[nH]c(-c6ccccn6)n5)CC4)cc3)nc12 [Example 40, 3-phenyl-2-(4-{[4-(5-pyridin-2-yl-1,2,4-triazol-3-yl)piperidin-1-yl]methyl}phenyl)imidazo[1,2-a]pyridine-8-carboxamide]
OvCAR3 cells
  IC50: < 10 µM
A549 cells; Homo sapiens, A549, 72 h
  IC50: > 10 µM

## Clc1ccc2nc(-c3ccc(CN4CCC(c5n[nH]c(-c6ccccn6)n5)CC4)cc3)c(-c3ccccc3)n2n1 [Example 31, 6-chloro-3-phenyl-2-(4-{[4-(5-pyridin-2-yl-1,2,4-triazol-3-yl)piperidin-1-yl]methyl}phenyl)imidazo[1,2-b]pyridazine]
OvCAR3 cells
  IC50: < 10 µM
A549 cells; Homo sapiens, A549, 72 h
  IC50: > 10 µM

## Cc1cccc(-c2nnc(C3CCN(Cc4ccc(-c5nc6c(C#N)cccn6c5-c5ccccc5)cc4)CC3)[nH]2)n1 [Example 62, 2-[4-({4-[5-(6-methylpyridin-2-yl)-4H-1,2,4-triazol-3-yl]piperidin-1-yl}methyl)phenyl]-3-phenylimidazo[1,2-a]pyridine-8-carbonitrile]
phospho-Akt (Ser473); Homo sapiens
  IC50: < 1 µM
A549 cells; Homo sapiens, A549, 72 h
  IC50: > 10 µM

## c1ccc(-c2c(-c3ccc(CN4CCC(c5nnc(-c6ccc[nH]6)[nH]5)CC4)cc3)nc3ncccn23)cc1 [Example 106, ′3-phenyl-2-[4-({4-[5-(1H-pyrrol-2-yl)-4H-1,2,4-triazol-3-yl]piperidin-1-yl}methyl)phenyl]imidazo[1,2-a]pyrimidine]
phospho-Akt (Ser473)
  IC50: < 1 µM
A549 cells; [1]
  IC50: > 10 µM

## Cc1cccc(-c2nnc(C3CCN(Cc4ccc(-c5nc6sccn6c5-c5ccccc5)cc4)CC3)[nH]2)n1 [Example 66, ′6-[4-({4-[5-(6-methylpyridin-2-yl)-4H-1,2,4-triazol-3-yl]piperidin-1-yl}methyl)phenyl]-5-phenylimidazo[2,1-b][1,3]thiazole]
phospho-Akt (Ser473)
  IC50: < 1 µM
A549 cells; [1]
  IC50: < 10 µM

## COc1nccn2c(-c3ccccc3)c(-c3ccc(CN4CCC(c5nnc(-c6cccc(C)n6)[nH]5)CC4)cc3)nc12 [Example 65, ′8-methoxy-2-[4-({4-[5-(6-methylpyridin-2-yl)-4H-1,2,4-triazol-3-yl]piperidin-1-yl}methyl)phenyl]-3-phenylimidazo[1,2-a]pyrazine]
phospho-Akt (Ser473)
  IC50: < 1 µM
A549 cells; [1]
  IC50: < 10 µM

## COc1ccc(-c2c(-c3ccc(CN4CCC(c5n[nH]c(-c6ccccn6)n5)CC4)cc3)nc3ncccn23)cc1 [Example 20, 3-(4-methoxyphenyl)-2-(4-{[4-(5-pyridin-2-yl-1,2,4-triazol-3-yl)piperidin-1-yl]methyl}phenyl)imidazo[1,2-a]pyrimidine]
A549 cells; Homo sapiens, A549, 72 h
  IC50: > 10 µM

## Clc1ccc2nc(-c3ccc(CN4CCC(c5nnc(-c6ccccn6)[nH]5)CC4)cc3)c(-c3ccccc3)n2c1 [Example 7, 6-chloro-3-phenyl-2-(4-{[4-(5-pyridin-2-yl-4H-1,2,4-triazol-3-yl)piperidin-1-yl]methyl}phenyl)imidazo[1,2-a]pyridine]
A549 cells; Homo sapiens, A549, 72 h
  IC50: < 10 µM

## N#Cc1ccn2c(-c3ccccc3)c(-c3ccc(CN4CCC(c5nnc(-c6ccccc6)[nH]5)CC4)cc3)nc2c1 [Example 118, 3-phenyl-2-(4-{[4-(5-phenyl-4H-1,2,4-triazol-3-yl)piperidin-1-yl]methyl}phenyl)imidazo[1,2-a]pyridine-7-carbonitrile]
A549 cells; Homo sapiens, A549, 72 h
  IC50: < 10 µM

## FC(F)(F)c1ccn2c(-c3ccccc3)c(-c3ccc(CN4CCC(c5n[nH]c(-c6ccccn6)n5)CC4)cc3)nc2n1 [Example 28, 3-phenyl-2-(4-{[4-(5-pyridin-2-yl-1,2,4-triazol-3-yl)piperidin-1-yl]methyl}phenyl)-7-(trifluoromethyl)imidazo[1,2-a]pyrimidine]
A549 cells; Homo sapiens, A549, 72 h
  IC50: > 10 µM

## Clc1ccc(-c2nnc(C3CCN(Cc4ccc(-c5nc6ncccn6c5-c5ccccc5)cc4)CC3)[nH]2)nc1 [Example 76, ′2-[4-({4-[5-(5-chloropyridin-2-yl)-4H-1,2,4-triazol-3-yl]piperidin-1-yl}methyl)phenyl]-3-phenylimidazo[1,2-a]pyrimidine]
A549 cells; [1]
  IC50: < 10 µM

## N#Cc1cccn2c(-c3ccccc3)c(-c3ccc(CN4CCC(c5nnc(-c6ccco6)[nH]5)CC4)cc3)nc12 [Example 90, ′2-[4-({4-[5-(2-furyl)-4H-1,2,4-triazol-3-yl]piperidin-1-yl}methyl)phenyl]-3-phenylimidazo[1,2-a]pyridine-8-carbonitrile]
A549 cells; [1]
  IC50: > 10 µM

Reference: patent US9387204B2, “Fused bicyclic imidazoles” (BAYER INTELLECTUAL PROPERTY GmbH, priority 2007, dated 2016)
